“Also recorded” adds a separate entry of the source.
Assays:
[1] = Water solubility on dilution from DMSO stock; format: physicochemical; conditions: kinetic from dmso stock, diluted from a 50 mM stock solution in DMSO
KATP channels [2] = assay: Whole cell patch clamp of KATP currents in MIN6 beta cells; format: cell-based; conditions: illumination 470 ± 20 nm, JB253 concentration printed as 10 mM
Experimental: MIN6 cells (obtained from Dr Jun-ichi Miyazaki, Osaka University, see Miyazaki et al., 1990)) were cultured in DMEM supplemented with 15% FBS, 1% glutamine, 2% HEPES buffer, 0.0005% β-mercaptoethanol and 1% penicillin/streptomycin. Cells were seeded onto glass coverslips 24 hrs before whole cell patch clamp experiments using micropipettes generated from thin-walled borosilicate capillaries (3-6 MΩ). Bath solution contained in mM: 3 KCl, 118 NaCl, 25 HEPES, 3 MgCl2 and 2 CaCl2. Pipette solution contained in mM: 150 KCl, 3 MgCl2, 5 EGTA, 10 HEPES, 0.3 K2ATP (pH 7.2), and the holding potential was -60 mV. Illumination was provided using a X-Cite 120 mercury arc lamp (Lumen Dynamics) with a bandpass filter (470 ± 20 nm). Voltage ramps from -20 mV to -120 mV (500 ms duration) were applied every 5 s to produce current-voltage relationships in the presence and absence of JB253. All cells lines were regularly mycoplasma tested.

isolated murine islets = assay: Insulin secretion from isolated islets (static incubation, radioimmunoassay); format: cell-based, mouse
Experimental: Insulin secretion was measured from 6 islets per well, incubated at 37 °C for 30 min in 0.5 ml of Krebs-HEPES-bicarbonate (KHB) solution (containing in mM: 130 NaCl, 3.6 KCl, 1.5 CaCl2, 0.5 MgSO4, 0.5 NaH2PO4, 2 NaHCO3, 10 HEPES, and 0.1 % (wt/vol) BSA, pH 7.4) containing the indicated glucose concentration and tolbutamide (100 µM), glimeperide (50 µM), diazoxide (250 µM) and JB253 (50 µM). Illumination (λ = 405 ± 20 nm and 485 ± 6 nm) was performed using a Fluostar Optima microplate reader (BMG Labtech) set to deliver 30 s of light every 2 min to the designated wells. Insulin concentrations were determined in duplicate using specific radioimmunoassay (EMD Millipore).

KATP channels [3] = biological target: T1, KATP channels (Rattus norvegicus, UniProt Q09429); assay: Whole cell patch clamp of HEK293t cells transfected with Kir6.2 and SUR1; format: cell-based; conditions: for Difference (%) in current change between first and last switch / ΔI [pA] first switch / ΔI [pA] last switch: 400 nm; for reversal potential: n = 5 recordings; for % block: versus 500 µM tolbutamide in the same experiment, n = 3
T1 construct: expressed in transfected cells; host or cells: HEK293t (Leibniz-Institut DSMZ: #305)
T1 sequence (Q09429 whole entry): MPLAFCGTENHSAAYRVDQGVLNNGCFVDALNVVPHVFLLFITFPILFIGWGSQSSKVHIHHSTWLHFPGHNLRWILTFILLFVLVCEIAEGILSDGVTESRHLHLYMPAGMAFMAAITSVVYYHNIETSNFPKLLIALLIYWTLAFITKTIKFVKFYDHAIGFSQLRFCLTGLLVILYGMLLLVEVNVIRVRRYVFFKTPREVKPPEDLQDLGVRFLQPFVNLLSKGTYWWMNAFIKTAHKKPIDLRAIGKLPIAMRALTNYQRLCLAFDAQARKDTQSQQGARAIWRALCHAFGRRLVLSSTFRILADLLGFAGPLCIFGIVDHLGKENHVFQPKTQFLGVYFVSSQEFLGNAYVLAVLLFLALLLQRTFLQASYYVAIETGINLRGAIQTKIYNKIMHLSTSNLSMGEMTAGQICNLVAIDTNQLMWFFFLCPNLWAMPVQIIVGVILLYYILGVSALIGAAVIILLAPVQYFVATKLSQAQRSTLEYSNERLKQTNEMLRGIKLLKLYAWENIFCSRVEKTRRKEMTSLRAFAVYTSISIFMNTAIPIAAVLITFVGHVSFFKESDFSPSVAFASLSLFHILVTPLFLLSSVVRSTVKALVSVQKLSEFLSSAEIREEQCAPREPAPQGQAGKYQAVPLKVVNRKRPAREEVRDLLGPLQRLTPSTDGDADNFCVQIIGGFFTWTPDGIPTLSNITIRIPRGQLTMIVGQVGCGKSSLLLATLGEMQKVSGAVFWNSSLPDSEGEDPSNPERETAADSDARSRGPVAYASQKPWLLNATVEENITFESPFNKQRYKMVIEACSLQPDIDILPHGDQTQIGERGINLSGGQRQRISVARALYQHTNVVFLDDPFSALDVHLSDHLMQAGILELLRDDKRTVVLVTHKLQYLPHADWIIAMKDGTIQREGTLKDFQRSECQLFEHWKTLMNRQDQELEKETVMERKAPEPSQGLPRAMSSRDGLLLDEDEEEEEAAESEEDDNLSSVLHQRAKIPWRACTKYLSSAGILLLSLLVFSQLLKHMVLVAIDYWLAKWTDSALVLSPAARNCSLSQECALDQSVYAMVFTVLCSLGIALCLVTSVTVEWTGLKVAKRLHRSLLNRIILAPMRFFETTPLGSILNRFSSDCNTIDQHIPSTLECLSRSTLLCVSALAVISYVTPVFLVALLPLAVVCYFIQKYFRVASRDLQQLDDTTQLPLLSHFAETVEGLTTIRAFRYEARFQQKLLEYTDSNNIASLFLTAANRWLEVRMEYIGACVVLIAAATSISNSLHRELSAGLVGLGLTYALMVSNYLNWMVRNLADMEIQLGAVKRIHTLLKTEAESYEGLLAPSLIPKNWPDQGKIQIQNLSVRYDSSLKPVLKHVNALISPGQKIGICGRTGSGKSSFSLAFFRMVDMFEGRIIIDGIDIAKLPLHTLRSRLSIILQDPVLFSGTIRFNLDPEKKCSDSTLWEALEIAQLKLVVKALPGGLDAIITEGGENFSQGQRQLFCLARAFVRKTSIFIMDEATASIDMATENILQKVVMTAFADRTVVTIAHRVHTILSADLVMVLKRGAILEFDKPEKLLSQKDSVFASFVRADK
T1 sequence (Q61743 whole entry partner): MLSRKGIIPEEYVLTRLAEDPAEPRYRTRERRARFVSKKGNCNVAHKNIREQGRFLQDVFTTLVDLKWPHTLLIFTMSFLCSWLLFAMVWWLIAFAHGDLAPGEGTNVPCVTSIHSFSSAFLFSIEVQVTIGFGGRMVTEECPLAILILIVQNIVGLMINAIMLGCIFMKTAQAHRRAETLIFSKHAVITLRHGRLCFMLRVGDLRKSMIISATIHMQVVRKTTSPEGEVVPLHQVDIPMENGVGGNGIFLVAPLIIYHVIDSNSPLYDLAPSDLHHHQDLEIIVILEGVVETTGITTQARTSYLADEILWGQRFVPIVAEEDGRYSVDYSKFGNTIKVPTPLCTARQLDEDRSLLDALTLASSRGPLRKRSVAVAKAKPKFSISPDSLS
Experimental: HEK293t cells (obtained from Leibniz-Institut DSMZ: #305) were incubated in Dulbecco's Modified Eagle Medium (DMEM) + 10% FBS and used for electrophysiological recordings 24-48 hrs following Lipofectamine transfection with plasmids encoding Kir6.2 (Genbank D50581), rat SUR1 (Genbank L40624) and GFP. Whole cell patch clamp experiments were performed using a standard electrophysiology setup equipped with a HEKA Patch Clamp EPC10 USB amplifier and PatchMaster software (HEKA Electronik). Micropipettes were generated from "Science Products GB200-F-8P with filament" pipettes using a vertical puller. Resistance varied between 5-7 MΩ. Bath solution contained in mM: 3 KCl, 118 NaCl, 25 NaHCO3, 2 CaCl2, 1 MgCl2, 10 HEPES (NaOH to pH 7.4). Pipette solution contained in mM: 90 K-gluconate, 10 NaCl, 10 KCl, 1 MgCl2, 10 EGTA, 60 HEPES (KOH to pH 7.3), and the holding potential was -60 mV. Illumination during electrophysiology and UV/Vis experiments was provided by a TILL Photonics Polychrome 5000 monochromator.

[4] = four dark/400 nm cycles, single cell, ± SEM
[5] = λ 400 nm, 50 µM JB253, ± SD, n = 3 recordings
[6] = λ 420 nm, 50 µM JB253, ± SD, n = 3 recordings
[7] = λ 440 nm, 50 µM JB253, ± SD, n = 3 recordings
[8] = λ 460 nm, 50 µM JB253, ± SD, n = 3 recordings
[9] = λ 480 nm, 50 µM JB253, ± SD, n = 3 recordings
[10] = λ 500 nm, 50 µM JB253, ± SD, n = 3 recordings

## CCN(CC)c1ccc(/N=N/c2ccc(S(=O)(=O)NC(=O)NC3CCCCC3)cc2)cc1 [JB253, (E)-N-(cyclohexylcarbamoyl)-4-((4-(diethylamino)phenyl)diazenyl)benzenesulfonamide]
[1]
  solubility: ≥ 100 µM
KATP channels [2]
  block of KATP (hyperpolarizing) currents: reversibly blocked; also recorded: only blocks the KATP current during illumination
Isolated murine islets; 50 µM JB253, 5 mM glucose, 405 nm or 485 nm, 30 min
  insulin secreted following illumination: 4-8 fold
Isolated murine islets; 50 µM JB253, dark, 30 min
  insulin release in the dark versus control (5 mM glucose): similar
Isolated murine islets; 485 nm light, JB253 50 µM, glimepiride 50 µM
  stimulation of insulin secretion compared with glimepiride: equipotent to glimepiride
KATP channels [3]; experiment 1, 12 cycles
  Difference (%) in current change between first and last switch: 34.4%
  ΔI [pA] first switch: 136.5 pA
  ΔI [pA] last switch: 89.5 pA
KATP channels [3]; experiment 2, 9 cycles
  Difference (%) in current change between first and last switch: 3.4%
  ΔI [pA] first switch: 438.8 pA
  ΔI [pA] last switch: 423.8 pA
KATP channels [3]; experiment 3, 5 cycles
  Difference (%) in current change between first and last switch: 19.5%
  ΔI [pA] first switch: 200.0 pA
  ΔI [pA] last switch: 161.0 pA
KATP channels [3]; experiment 4, 4 cycles
  Difference (%) in current change between first and last switch: 2.1%
  ΔI [pA] first switch: 521 pA
  ΔI [pA] last switch: 510 pA
KATP channels [3]; HEK293t Kir6.2/SUR1
  wavelength of maximal photoblock of KATP channels: 460 nm
KATP channels [3]; HEK293t Kir6.2/SUR1, holding potential -60 mV, n = 3 recordings
  photoswitching of K^+ currents at wavelengths > 560 nm: unable to photoswitch
KATP channels [3]; block upon exposure to 400 nm
  τon: 400 ms
KATP channels [3]; dark state, 50 µM JB253, a fraction of the effect of 500 µM tolbutamide
  K^+ current amplitude: partly reduced
KATP channels [3]; dark, ± SEM
  reversal potential: -90.0 ± 1.8 mV
KATP channels [3]; [4]
  ΔI: 504.8±6.9 pA
  τoff: 1472 ± 75 ms
  τon: 477 ± 26 ms
KATP channels [3]; illuminated, ± SEM
  reversal potential: -87.8 ± 1.6 mV
KATP channels [3]; illumination with wavelengths between 400-500 nm, 50 µM JB253
  block relative to that recorded using 500 µM tolbutamide: 45-72%
KATP channels [3]; repeated dark/400 nm cycles, mean of all experiments
  difference in ΔI [pA] between first and last switch: 14.9 ± 7.6%
KATP channels [3]; thermal relaxation after light source shut off (400 nm)
  τoff: 1500 ms
KATP channels [3]; λ 400 nm, 50 µM JB253, single representative experiment
  ΔI: 216 pA
KATP channels [3]; λ 400 nm, 50 µM JB253, ± SD
  % block: 44.0±29.6%
KATP channels [3]; [5]
  τoff: 2758 ± 745 ms
  τon: 1176 ± 385 ms
KATP channels [3]; λ 420 nm, 50 µM JB253, single representative experiment
  ΔI: 492 pA
KATP channels [3]; λ 420 nm, 50 µM JB253, ± SD
  % block: 69.4±51.1%
KATP channels [3]; [6]
  τoff: 2209 ± 482 ms
  τon: 1309 ± 438 ms
KATP channels [3]; λ 440 nm, 50 µM JB253, single representative experiment
  ΔI: 440 pA
KATP channels [3]; λ 440 nm, 50 µM JB253, ± SD
  % block: 70.0±44.3%
KATP channels [3]; [7]
  τoff: 2295 ± 397 ms
  τon: 1246 ± 421 ms
KATP channels [3]; λ 460 nm, 50 µM JB253, single representative experiment
  ΔI: 481 pA
KATP channels [3]; λ 460 nm, 50 µM JB253, ± SD
  % block: 72.8±48.1%
KATP channels [3]; [8]
  τoff: 1940 ± 322 ms
  τon: 1181 ± 447 ms
KATP channels [3]; λ 480 nm, 50 µM JB253, single representative experiment
  ΔI: 487 pA
KATP channels [3]; λ 480 nm, 50 µM JB253, ± SD
  % block: 72.4±49.0%
KATP channels [3]; [9]
  τoff: 2183 ± 422 ms
  τon: 1163 ± 434 ms
KATP channels [3]; λ 500 nm, 50 µM JB253, single representative experiment
  ΔI: 482 pA
KATP channels [3]; λ 500 nm, 50 µM JB253, ± SD
  % block: 70.2±49.5%
KATP channels [3]; [10]
  τoff: 2002 ± 354 ms
  τon: 1244 ± 462 ms

— EP3009422A1, “Photo-switchable sulfonylureas and their uses” (Ludwig-Maximilians-Universität München, priority 2014, dated 2016)
